{"source": "patent US9642389B2", "about": "(MALAYSIAN PALM OIL BOARD, priority 2009, dated 2017)", "origin": "cited, not measured here", "key": {"[1]": {"test_system": "brains of ovariectomized female rats", "details": "literature [33]"}, "Fos": {"test_system": "Fos", "details": "aged rats, literature [34]"}, "mice": {"test_system": "mice", "details": "literature [16-20]"}}, "data": [{"smiles": "O=c1c(O)c(-c2ccc(O)c(O)c2)oc2cc(O)cc(O)c12", "note": "[quercetin]", "values": [{"measurement": "rate of protein synthesis in brains", "setting": "[1]", "result": "up-regulated"}]}, {"smiles": "CC(C)=CCC[C@](C)(O[C@@H]1O[C@H](CO)[C@@H](O)[C@H](O)[C@H]1O)[C@H]1CC[C@]2(C)[C@@H]1[C@H](O)C[C@@H]1[C@@]3(C)CC[C@H](O)C(C)(C)[C@@H]3[C@@H](O[C@@H]3O[C@H](CO)[C@@H](O)[C@H](O)[C@H]3O)C[C@]12C", "note": "[ginsenoside Rg1]", "values": [{"measurement": "age-related decline of Fos in the hippocampi", "setting": "Fos", "result": "attenuated"}]}, {"smiles": "Oc1ccc(C=Cc2cc(O)cc(O)c2)cc1", "note": "[resveratrol]", "values": [{"measurement": "performance of mice on rotarods", "setting": "mice", "result": "improve"}]}]}
